Assay results published in patent US10570152B2, “Antibacterial therapeutics and prophylactics” (VYOME BIOSCIENCES PVT. LTD., priority 2015, dated 2020).
≈ marks a conversion by molar mass, not a printed value. Where “and” joins values, the source holds several entries; their conditions need not be identical. Equal values may be shown once.

Experiments:
[1] = test system: S. epidermidis ATCC 35984 biofilm; assay: Biofilm disruption assay (MTT) with compounds and compound loaded beads; type: cell-based; settings: Staphylococcus epidermidis, ATCC35984, read-out: Concentration of compounds (mg/ml) for 50% biofilm disruption
Method: S. epidermidis ATCC 35984 was grown in Brain Heart Infusion Agar (BHIA) at 37° C. for 24 h. The loop full of bacterial culture was suspended in sterile water and matched the turbidity against 0.5 McFarland Standard (approximately 1.5×10^8), 100 μl of culture suspension was added into each well of the 96 well plate and plates were incubated at 37° C. for 48 h for biofilm formation. The biofilm formed in each well was washed twice with sterile water to remove the planktonic cells. Then biofilm was treated with 100 yl of BHI broth suspended with various concentrations of DART molecules, followed by incubation of the plates at 37° C. for 24 h. Subsequently the biofilm in the wells were stained with MTT reagent and the plates were incubated at 37° C. for 2 h. The precipitate formed in the wells was dissolved in 100 μl of dimethyl sulfoxide (DMSO) and the absorbance was measured at 600 nm in multi well plate reader to determine the minimum biofilm inhibitory concentration (MBIC). The MBIC was calculated by subtracting the absorbance value of each drug treated sample from that of 48 h growth control.

[2] = Drug release assay of compound impregnated Smart set HV; type: physicochemical; settings: Smart set HV loaded; PBS buffer (pH 6.8):acetonitrile (9:1), 32° C., 7 days
Method: The drug release study with compound 2 and compound 10 were conducted in sample vial containing 1.5 ml of dissolution media i.e., PBS buffer (pH 6.8):acetonitrile (9:1). The sample was kept in incubator rotator at 32° C. at 40 rpm. The release medium was withdrawn at specified interval of time (2 hr, 4 hr, 6 hr, day 1, day 2, day 3, day 4, day 5, day 6, day 7 and replaced by fresh 1.5 ml dissolution medium each time. All the samples were kept at −20° C. till the analysis is done. The measurement of drug release was done by HPLC.

[3] = test system: S. aureus and S. epidermidis; assay: Emergence of resistance assay (serial passaging); type: cell-based, S. aureus MTCC 6908 & S. epidermidis S5-2; settings: upto 28th generation
Method: The in vitro emergence of resistance assay was performed for the compounds as per methods reported in literatures. The resistance assay for the test compounds was done in the same manner as documented in the MIC assay using micro broth dilution method as per CLSI guidelines. For the second cycle, bacterial culture was collected from the well showing growth, containing the next lowest concentration to the MIC of test compound, and used as inoculum for the next cycle containing the same or higher range of concentrations depending on the MIC in each cycle. The same procedure was repeated in subsequent cycles for 20-30 days. […] The serial passaging was repeated for 20-30 consecutive cycles. The assay was done in duplicates in each cycle.
An increase in MIC≥8 fold compared to the MIC of the test compound in cycle 1 was considered as a significant development of resistance.

[4] = test system: P. acnes CCARM 9010 induced paw inflammation; assay: Anti-inflammatory action in vivo, rat paw edema model; design: species or system Sprague Dawley rats; settings: topical, 24 h post initiation of treatment (32 h post induction)
Source text: Host inflammation is one of the crucial clinical feature of most of the indications associated with bacterial infections. The inventors used an exemplary compound of the invention (Compound 2) to test the anti-inflammatory effects in vivo using rat paw edema model. Inflammation was induced using one of the opportunistic pathogens Propionibacterium acnes prevalent in implant associated infections. Sprague Dawley rats were used for the study and infection was induced by P. acnes CCARM 9010. An inoculum of 1×10^9 CFU/ml of the heat killed bacteria was injected to the plantar side of the right hind paw (˜2×10^7 CFU/paw) except in sham control where saline was injected. Treatments were initiated 8 h post injection by applying the test formulation of Compound 2 (30 mg) twice daily to the plantar surface of the right hind paw and gently rubbing 50 times with the index finger. Comparators Acnedap (dapsone 5% gel) and adapalene gel (Adaferin®) were applied twice daily and once daily based on clinical prescription dosage. Paw sizes were measured in millimeters using Vernier calipers at the start of the infection, 8 h post infection, and 24 h post initiation of treatment (32 h post induction of inflammation). The change in paw size, due to inflammation, was evaluated as the difference between the paw size measured at each time point and the basal paw size measured immediately before edema induction.

S. epidermidis S12-1 = assay: MIC by micro broth dilution; type: cell-based; settings: Staphylococcus epidermidis, S121, read-out: Minimum inhibitory concentration (MIC)
In short: (§1)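 Using CLSI guidance, compound is double-diluted in BHI broth and challenged with bacteria from a 0.5 McFarland suspension (about 1.5×10^8 cells/ml) diluted 100 times. After 24 h at 37° C., Alamar blue dye gives the MIC.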

S. aureus MTCC 6908 = assay: MIC by micro broth dilution; type: cell-based; settings: Staphylococcus aureus, MTCC6908, read-out: Minimum inhibitory concentration (MIC)
In short: as §1

S. aureus CCARM 3505 = assay: MIC by micro broth dilution; type: cell-based; settings: Staphylococcus aureus, CCARM3505, read-out: Minimum inhibitory concentration (MIC)
In short: as §1

E. coli BAA 196 = assay: MIC by micro broth dilution; type: cell-based; settings: Escherichia coli, BAA196, read-out: Minimum inhibitory concentration (MIC)
In short: as §1

E. coli MTCC 1687 = assay: MIC by micro broth dilution; type: cell-based; settings: Escherichia coli, MTCC1687, read-out: Minimum inhibitory concentration (MIC)
In short: as §1

S. epidermidis S5-2 = assay: Sequential ZIB (zone of inhibition) assay for PMMA beads; type: cell-based, Staphylococcus epidermidis; settings: SmartSet HV impregnated beads
Method: S. epidermidis S5-2 cells were grown in Brain Heart Infusion Agar (BHIA) at 37° C. for 24 h. 100 μl of 0.5 McFarland equal bacterial suspension was spread on BHA plates. Drug loaded beads were placed above these plates. Plates were incubated at 37° C. for 24 h. Next day, zone of inhibition (ZOI) the beads were measured following which the beads were placed on fresh BHA plates with bacterial suspension spread and this experiment was continued up to seven days. The drug release pattern was determined by compiling and analyzing the ZOI data of beads on each ZOI cycle up to seven days.

Cc1ncc([N+](=O)[O-])n1CCN1CCN(c2cc3c(cc2F)c(=O)c(C(=O)O)c2n3C(C)S2)CC1 (stereo not shown) [Compound 2, 6-Fluoro-1-methyl-7-(4-(2-(2-methyl-5-nitro-1H-imidazol-1-yl)ethyl)piperazin-1-yl)-4-oxo-1H,4H-[1,3]thiazeto[3,2-a]quinoline-3-carboxylic acid]
EC50 [1]: 0.5 to 1 mg/mL (≈ 995 to 1990 µM)
drug release from bone cement in words [2]: sustained release of active over a period of 7 days
MIC enhancement [3]: 2-4 ×MIC
Inhibition of inflammation (%) at 24 h post treatment [4]: 43% and 43.20%
MIC (S. epidermidis S12-1): 8 mg/L (≈ 15.9 µM)
MIC (S. aureus MTCC 6908): 0.53 mg/L (≈ 1.05 µM)
MIC (S. aureus CCARM 3505): 16 mg/L (≈ 31.8 µM)
MIC (E. coli BAA 196): 8 mg/L (≈ 15.9 µM)
MIC (E. coli MTCC 1687): 1 mg/L (≈ 1.99 µM)
Sequential ZOI (S. epidermidis S5-2; Day-1): 2.2 cm
Sequential ZOI (S. epidermidis S5-2; Day-2): 2.1 cm
Sequential ZOI (S. epidermidis S5-2; Day-3): 1.6 cm
Sequential ZOI (S. epidermidis S5-2; Day-4): 0.8 cm
Sequential ZOI (S. epidermidis S5-2; Day-5): 1.6 cm
Sequential ZOI (S. epidermidis S5-2; Day-6): 1.8 cm
Sequential ZOI (S. epidermidis S5-2; Day-7): 1.4 cm
